Assay results: ChEMBL document CHEMBL1137714, “Primaquine revisited six decades after its discovery” (Eur J Med Chem, 2009)

Experiments:
[1] = target: Acetylcholinesterase (Homo sapiens) (UniProt P22303); assay: Inhibition of human erythrocyte AChE
Homo sapiens = organism: Homo sapiens; assay: Toxicity in human assessed as incidence of abdominal cramps at 22.5 to 30 mg/day; assay type: organism-based, Abdomen; settings: in vivo
[2] = Tmax in po dosed human; assay type: ADME, organism-based; settings: in vivo

Sequence of Acetylcholinesterase (Homo sapiens) (P22303 whole entry): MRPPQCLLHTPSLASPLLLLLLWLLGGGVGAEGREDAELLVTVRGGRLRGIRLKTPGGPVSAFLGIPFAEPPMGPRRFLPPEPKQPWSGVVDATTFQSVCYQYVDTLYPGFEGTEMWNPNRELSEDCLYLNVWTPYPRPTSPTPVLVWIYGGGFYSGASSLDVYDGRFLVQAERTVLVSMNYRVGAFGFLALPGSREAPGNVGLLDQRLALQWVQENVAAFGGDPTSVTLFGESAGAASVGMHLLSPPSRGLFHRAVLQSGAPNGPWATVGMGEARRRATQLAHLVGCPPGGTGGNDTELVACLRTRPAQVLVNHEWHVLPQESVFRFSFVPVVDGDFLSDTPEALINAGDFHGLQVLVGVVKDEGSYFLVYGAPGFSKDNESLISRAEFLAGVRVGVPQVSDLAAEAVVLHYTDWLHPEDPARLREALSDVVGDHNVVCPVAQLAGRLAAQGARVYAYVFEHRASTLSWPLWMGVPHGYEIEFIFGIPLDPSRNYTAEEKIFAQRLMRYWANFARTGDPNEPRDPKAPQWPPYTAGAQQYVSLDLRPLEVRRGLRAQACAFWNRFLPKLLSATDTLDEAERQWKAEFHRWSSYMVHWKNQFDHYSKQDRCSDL

Work on `COc1cc(NC(C)CCCN)c2ncccc2c1` (stereo not drawn) [PRIMAQUINE] yielded an IC33 [1] of 30 µM, an Activity (Homo sapiens) of 10% and a Tmax [2] of 12 h.
